Where two headings read alike, the source gives them in different places.
Experiments:
CSF-1R = CSF-1R (Homo sapiens (Human), UniProt P07333); experiment: Biochemical HTRF kinase assay, CSF-1R; conditions: Table 2; recombinant human CSF-1R;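 note: enzyme incubated with inhibitor plus a substrate and ATP mix for one hour at room temperature before HTRF detection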
[1] = tested on: Ba/F3_CSF-1R (stably expressing human CSF-1R kinase); experiment: Cell proliferation assay, Ba/F3_CSF-1R; format: cell-based
EOC2 cell = experiment: Cell proliferation assay, EOC2; format: cell-based, mouse
[2] = Ba/F3_CSF-1R cells, 72 hours treatment, read-out: CSF-1R BaF3 EC50
[3] = Mus musculus, 72 h, EOC2 cells, 72 hours treatment, read-out: ECO2 EC50
[4] = EOC2 cells, 72 hours treatment, read-out: ECO2 EC50
[5] = BaF3, 72 h, Ba/F3_CSF-1R cells, 72 hours treatment, read-out: CSF-1R BaF3 EC50

Sequence of CSF-1R (P07333 20-972): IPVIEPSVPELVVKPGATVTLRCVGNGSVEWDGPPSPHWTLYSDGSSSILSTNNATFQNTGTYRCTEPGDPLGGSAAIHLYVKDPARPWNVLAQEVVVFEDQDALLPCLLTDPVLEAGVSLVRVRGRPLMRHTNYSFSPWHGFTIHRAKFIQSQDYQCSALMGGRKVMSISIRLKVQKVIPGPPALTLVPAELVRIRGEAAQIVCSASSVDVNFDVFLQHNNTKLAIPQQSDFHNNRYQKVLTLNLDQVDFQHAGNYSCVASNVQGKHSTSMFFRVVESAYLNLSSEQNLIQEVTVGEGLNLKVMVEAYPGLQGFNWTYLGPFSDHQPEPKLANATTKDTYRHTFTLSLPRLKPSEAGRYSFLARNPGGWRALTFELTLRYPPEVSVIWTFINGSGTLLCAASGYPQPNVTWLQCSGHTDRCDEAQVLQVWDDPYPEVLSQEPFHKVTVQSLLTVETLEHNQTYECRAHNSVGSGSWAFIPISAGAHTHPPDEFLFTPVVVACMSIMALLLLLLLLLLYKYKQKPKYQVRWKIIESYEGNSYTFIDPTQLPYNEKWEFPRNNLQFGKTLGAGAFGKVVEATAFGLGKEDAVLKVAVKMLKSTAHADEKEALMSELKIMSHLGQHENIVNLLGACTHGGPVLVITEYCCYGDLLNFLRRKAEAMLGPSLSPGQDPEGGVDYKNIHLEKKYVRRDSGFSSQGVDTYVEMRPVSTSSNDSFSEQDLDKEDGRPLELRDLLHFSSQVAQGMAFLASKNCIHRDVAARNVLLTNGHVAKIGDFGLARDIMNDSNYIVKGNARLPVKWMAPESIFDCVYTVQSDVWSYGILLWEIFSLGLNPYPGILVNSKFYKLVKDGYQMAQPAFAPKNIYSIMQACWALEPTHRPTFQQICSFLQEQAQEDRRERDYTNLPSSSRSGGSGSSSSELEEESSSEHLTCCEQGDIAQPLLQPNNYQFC

EC50 ([1]; BaF3, 72 h, read-out: CSF-1R BaF3 EC50 (nM)) | SMILES | IC50 (CSF-1R) | EC50 [1, 2] | EC50 (EOC2 cell; [3]) | EC50 (EOC2 cell; [4]) | EC50 [1, 5] | EC50 (EOC2 cell; Mus musculus, 72 h, read-out: ECO2 EC50 (nM))
– | COc1cnc2c(Cc3cnc(OCc4cnc5c(c4)CC[C@H]5OC)c(OC)c3)ccnc2c1 (stereo in doubt) [Example 104] | 0.0024 µM | 53.2 nM | 41 nM | – | – | –
– | COc1cnc2c(Cc3cnc(OCc4cnc5c(c4)CC[C@H]5OC)c(OC)c3)ccnc2c1 (stereo in doubt) [Example 105] | 0.0024 µM | 108 nM | – | 65 nM | – | –
– | COc1cnc2c(Cc3cnc(OCc4cc5n(n4)CCO[C@H]5C)c(OC)c3)ccnc2c1 (stereo in doubt) [Example 114] | 0.0017 µM | 75.7 nM | – | 37.9 nM | – | –
– | COc1cnc2c(Cc3cnc(OCc4cc5n(n4)CCO[C@H]5C)c(OC)c3)ccnc2c1 (stereo in doubt) [Example 115] | 0.004 µM | 158 nM | – | 81.9 nM | – | –
– | COc1ccc(COc2ccc(Cc3ccnc4cc(OC)ccc34)cc2OC)cc1 [Example 1] | – | – | 42 nM | – | 42.6 nM | –
– | COc1ccc(COc2ccc(Cc3ccnc4cnccc34)cc2OC)cc1 [Example 2, 4-(3-methoxy-4-((4-methoxybenzyl)oxy)benzyl)-1,7-naphthyridine] | 0.0134 µM | – | 126 nM | – | 75 nM | –
– | COc1ccc(COc2ccc(Cc3ccnc4ccccc34)cc2OC)cc1 [Example 3] | – | – | – | – | 89.2 nM | –
– | COc1ccc(COc2ccc(Cc3ccnc4cc(OC)cnc34)cc2OC)cc1 [Example 4] | 0.0087 µM | – | 22.6 nM | – | 44.6 nM | –
– | COc1ccc(COc2ccc(Cc3ncnc4cc(OC)ccc34)cc2OC)cc1 [Example 5] | 0.021 µM | – | 310 nM | – | 263 nM | –
– | COc1ccc2c(Cc3ccc(OCc4ccn5ccnc5c4)c(OC)c3)ccnc2c1 [Example 6, 4-(4-(imidazo[1,2-a]pyridin-7-ylmethoxy)-3-methoxybenzyl)-7-methoxy quinoline] | 0.0082 µM | – | 592 nM | – | 551 nM | –
– | COc1ccc2c(Cc3ccc(OCc4ccc5nccn5c4)c(OC)c3)ccnc2c1 [Example 7] | 0.0053 µM | – | 328 nM | – | 305 nM | –
– | COc1ccc2c(Cc3ccc(OCc4cccnc4)c(OC)c3)ccnc2c1 [Example 8] | – | – | – | – | 546 nM | –
– | COc1ccc2c(Cc3ccc(OCc4ccccn4)c(OC)c3)ccnc2c1 [Example 9] | 0.169 µM | – | – | – | 901 nM | –
– | COc1ccc2c(Cc3ccc(OCc4ccncc4)c(OC)c3)ccnc2c1 [Example 10] | 0.118 µM | – | – | – | > 1000 nM | –
– | COc1ccc2c(Cc3ccc(OCc4nc5ccccc5n4C)c(OC)c3)ccnc2c1 [Example 11] | 0.149 µM | – | – | – | > 1000 nM | –
– | COc1ccc2c(Cc3ccc(OCc4ccc5cnn(C)c5c4)c(OC)c3)ccnc2c1 [Example 12] | 0.299 µM | – | – | – | > 1000 nM | –
– | COc1ccc(COc2ncc(Cc3ccnc4cc(OC)ccc34)cc2OC)nc1 [Example 13, 7-methoxy-4-((5-methoxy-6-((5-methoxypyridin-2-yl)methoxy)pyridin-3-yl)methyl)quinolone] | – | – | 151 nM | – | 176 nM | –
– | COc1ccc2c(Cc3ccc(OCc4ccc(C(F)(F)F)cc4)c(OC)c3)ccnc2c1 [Example 14] | 0.118 µM | – | 132 nM | – | 157 nM | –
– | COc1ccc(COc2ccc(Cc3ccnc4ccncc34)cc2OC)cc1 [Example 17] | 0.0057 µM | – | 180 nM | – | 185 nM | –
– | COc1ccc2c(Cc3ccc(OCc4cn5ccccc5n4)c(OC)c3)ccnc2c1 [Example 18, 4-(4-(imidazo[1,2-a]pyridin-2-ylmethoxy)-3-methoxybenzyl)-7-methoxy quinoline] | 0.0094 µM | – | 272 nM | – | 196 nM | –
– | COc1ccc(COc2ncc(Cc3ccnc4cnccc34)cc2OC)nc1 [Example 19, 4-((5-methoxy-6-((5-methoxypyridin-2-yl)methoxy)pyridin-3-yl)methyl)-1,7-naphthyridine] | 0.0476 µM | – | – | – | > 1000 nM | –
– | COc1ccc2c(Cc3ccc(OCc4ccc5ccnn5c4)c(OC)c3)ccnc2c1 [Example 20] | 0.011 µM | – | 130 nM | – | 134 nM | –
– | COc1ccc2c(Cc3ccc(OCc4ccc5ncnn5c4)c(OC)c3)ccnc2c1 [Example 21] | 0.0126 µM | – | 492 nM | – | 509 nM | –
– | COc1ccc(COc2ncc(Cc3ccnc4cncnc34)cc2OC)nc1 [Example 22, 8-((5-methoxy-6-((5-methoxypyridin-2-yl)methoxy)pyridin-3-yl)methyl)pyrido[3,2-d]pyrimidine] | 0.064 µM | – | – | – | > 1000 nM | –
– | COc1ccc2c(Cc3ccc(OCc4cc(C)nn4C)c(OC)c3)ccnc2c1 [Example 23] | 0.008 µM | – | – | – | 323 nM | –
– | COc1ccc(COc2ccc(Cc3ccnc4ccc(F)cc34)cc2OC)cc1 [Example 24] | 0.025 µM | – | 239 nM | – | 177 nM | –
– | COc1ccc2c(Cc3ccc(OCc4ccn(C)c(=O)c4)c(OC)c3)ccnc2c1 [Example 25] | 0.04 µM | – | – | – | 583 nM | –

EC50 ([1]; BaF3, 72 h, read-out: CSF-1R BaF3 EC50 (nM)) | SMILES | IC50 (CSF-1R) | EC50 [1, 2] | EC50 (EOC2 cell; [3]) | EC50 (EOC2 cell; [4]) | EC50 [1, 5] | EC50 (EOC2 cell; Mus musculus, 72 h, read-out: ECO2 EC50 (nM))
– | COc1ccc2c(Cc3ccc(OCc4ccc(=O)n(C)c4)c(OC)c3)ccnc2c1 [Example 26] | 0.005 µM | – | – | – | 283 nM | –
– | COc1ccc2c(Cc3ccc(OCc4cccc(C(F)(F)F)c4)c(OC)c3)ccnc2c1 [Example 27] | 0.117 µM | – | – | – | 207 nM | –
– | COc1cccc(COc2ccc(Cc3ccnc4cc(OC)ccc34)cc2OC)c1 [Example 28] | 0.0257 µM | – | – | – | 356 nM | –
– | COc1ccc2c(Cc3ccc(OCc4ccccc4OC)c(OC)c3)ccnc2c1 [Example 29] | 0.0739 µM | – | – | – | 873 nM | –
– | COc1ccc2c(Cc3ccc(OCc4ccn5nccc5c4)c(OC)c3)ccnc2c1 [Example 30] | 0.0079 µM | – | 249 nM | – | 214 nM | –
– | COc1ccc2c(Cc3cnc(OCc4cnn(C)c4)c(OC)c3)ccnc2c1 [Example 31] | 0.0213 µM | – | > 1000 nM | – | > 1000 nM | –
– | COc1cnc2c(Cc3cnc(OCc4ccc(OC)nn4)c(OC)c3)ccnc2c1 [Example 32, 3-methoxy-8-((5-methoxy-6-((6-methoxypyridazin-3-yl)methoxy)pyridin-3-yl)methyl)-1,5-naphthyridine] | 0.0201 µM | – | 129 nM | – | 267 nM | –
– | COc1ccc2c(Cc3ccc(OCc4ccc5c(c4)OC(F)(F)O5)c(OC)c3)ccnc2c1 [Example 33] | 0.203 µM | – | 89.5 nM | – | 218 nM | –
– | COc1ccc2c(Cc3ccc(OCc4cc(C)no4)c(OC)c3)ccnc2c1 [Example 34] | 0.0232 µM | – | 462 nM | – | 493 nM | –
– | COc1ccc2c(Cc3ccc(OCc4cnc(C)s4)c(OC)c3)ccnc2c1 [Example 35] | 0.0161 µM | – | 392 nM | – | 449 nM | –
– | COc1ccc2c(Cc3ccc(OCc4cc(C)on4)c(OC)c3)ccnc2c1 [Example 36] | 0.0398 µM | – | 486 nM | – | 637 nM | –
– | COc1cnc2c(Cc3cnc(OCc4cnn(C)c4)c(OC)c3)ccnc2c1 [Example 37] | – | – | > 1000 nM | – | > 1000 nM | –
– | COc1ccc(COc2ncc(Cc3ccnc4cc(OC)cnc34)cc2OC)cc1 [Example 38] | 0.0021 µM | – | 40.8 nM | – | 210 nM | –
– | COc1cnc2c(Cc3cnc(OCc4ccc(OC)nc4)c(OC)c3)ccnc2c1 [Example 39] | 0.001 µM | – | 32.1 nM | – | 46.5 nM | –
– | COc1cnc(COc2ccc(Cc3ccnc4cc(OC)ccc34)cc2OC)nc1 [Example 40] | 0.0937 µM | – | 956 nM | – | > 1000 nM | –
– | COc1cnc2c(Cc3cnc(OCc4cc(F)cnc4OC)c(OC)c3)ccnc2c1 [Example 41] | 0.0399 µM | – | > 1000 nM | – | > 1000 nM | –
– | COc1cnc2c(Cc3cnc(OCc4cnc(C)s4)c(OC)c3)ccnc2c1 [Example 42] | 0.0147 µM | – | 408 nM | – | 510 nM | –
– | COc1cnc2c(Cc3cnc(OCc4cnn(C(C)C)c4)c(OC)c3)ccnc2c1 [Example 43] | 0.0028 µM | – | > 1000 nM | – | > 1000 nM | –
– | COc1cnc2c(Cc3cnc(OCc4cnc(OC)cn4)c(OC)c3)ccnc2c1 [Example 44] | 0.0086 µM | – | 171 nM | – | 457 nM | –
– | COc1cnc2c(Cc3cnc(OCc4cc(C)no4)c(OC)c3)ccnc2c1 [Example 46, 5-(((3-methoxy-5-((7-methoxy-1,5-naphthyridin-4-yl)methyl)pyridin-2-yl)oxy)methyl)-3-methylisoxazole] | 0.0224 µM | – | 201 nM | – | 332 nM | –
– | COc1cnc2c(Cc3cnc(OCc4ccc(Cl)cn4)c(OC)c3)ccnc2c1 [Example 58] | – | – | 42.9 nM | – | 93.9 nM | –
177 nM | COc1ccc(COc2ncc(Cc3ccnc4cc(Cl)cnc34)cc2OC)nc1 [Example 62, 3-chloro-8-((5-methoxy-6-((5-methoxypyridin-2-yl)methoxy)pyridin-3-yl)methyl)-1,5-naphthyridine] | – | – | – | – | – | 496 nM
– | COc1ccc(COc2ncc(Cc3ccnc4cc(N5CCOCC5)cnc34)cc2OC)nc1 [Example 119, 4-(8-((5-methoxy-6-((5-methoxypyridin-2-yl)methoxy)pyridin-3-yl)methyl)-1,5-naphthyridin-3-yl)morpholine] | – | – | 8 nM | – | 15.9 nM | –
– | COc1ccc(COc2ncc(Cc3ccnc4cc(N5CC6CC(C5)O6)cnc34)cc2OC)nc1 [Example 131] | – | – | 6.7 nM | – | 9.9 nM | –
– | COc1ccc(COc2ncc(Cc3ccnc4cc(C5CC5)cnc34)cc2OC)nc1 [Example 137] | – | – | 65 nM | – | 46.7 nM | –
– | COc1cnc2c(Cc3ccc4nc(N5CCC(OC)CC5)cnc4c3)ccnc2c1 [Example 153, 3-methoxy-8-[[2-(4-methoxy-1-piperidyl)quinoxalin-6-yl]methyl]-1,5-naphthyridine] | – | – | > 1000 nM | – | > 1000 nM | –

Source: US20250360145A1, “CSF-1R INHIBITORS AND USES THEREOF” (Myrobalan Therapeutics, Inc., priority 2022, published 2025)
